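96-well plates; 48 h exposure; 5 concentrations. Endpoints by linear interpolation between flanking doses. Not reached: highest tested concentration assigned. At the TGI there is no net growth.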
Columns and labels:
Assay in all cases: growth of human tumour cells (NCI), 48 h
[1] = test system: UO-31 renal
[2] = test system: SK-MEL-5 melanoma
[3] = test system: OVCAR-8 ovarian
[4] = test system: HCT-15 colon
[5] = test system: MOLT-4 leukemia
[6] = test system: HCC-2998 colon
[7] = test system: NCI-H23 lung
[8] = test system: CAKI-1 renal
[9] = test system: SNB-78 CNS
[10] = test system: SNB-19 CNS
[11] = test system: A549 NSCLC
[12] = test system: HOP-92 NSCLC
[13] = test system: SF-268 CNS
[14] = test system: SF-539 CNS
[15] = test system: HT29 colon
[16] = test system: SN12C renal
[17] = test system: KM12 colon
[18] = test system: U251 CNS
[19] = test system: LOX IMVI melanoma
[20] = test system: COLO 205 colon
[21] = test system: NCI-H226 lung
[22] = test system: K-562 leukemia
[23] = test system: SF-295 CNS
[24] = test system: OVCAR-5 ovarian
[25] = test system: IGROV1 ovarian
[26] = test system: CCRF-CEM leukemia
[27] = test system: SK-MEL-2 melanoma
[28] = test system: UACC-257 melanoma
[29] = test system: RXF 393 renal
[30] = test system: RPMI-8226 leukemia
[31] = test system: SR leukemia
[32] = test system: XF 498 CNS
[33] = test system: OVCAR-4 ovarian
[34] = test system: SW-620 colon
[35] = test system: NCI-H460 lung
[36] = test system: TK-10 renal
[37] = test system: HL-60(TB) leukemia
[38] = test system: ACHN renal
[39] = test system: KM20L2 colon
[40] = test system: HCT-116 colon
[41] = test system: DMS 273 small cell lung
[42] = test system: M14 melanoma
[43] = test system: SNB-75 CNS
[44] = test system: HOP-18 NSCLC
[45] = test system: DLD-1 colon
[46] = test system: EKVX NSCLC
[47] = test system: RXF-631 renal
[48] = test system: LXFL 529 NSCLC
[49] = test system: A498 renal
[50] = test system: MALME-3M melanoma
[51] = test system: SK-MEL-28 melanoma
[52] = test system: OVCAR-3 ovarian
[53] = test system: M19-MEL melanoma
[54] = test system: UACC-62 melanoma
[55] = test system: NCI-H522 lung
[56] = test system: DMS 114 small cell lung
[57] = test system: SK-OV-3 ovarian
[58] = test system: HOP-62 NSCLC
[59] = test system: 786-0 renal

In the case of `Nc1[nH]c(=O)nc2c1cnn2C1CCCCO1` (stereo not given), the TGI [1] was over 100 µM, the TGI [2] was over 100 µM and the TGI [3] was over 100 µM. For the same compound, the TGI [4] was over 100 µM, the TGI [5] was over 100 µM and the TGI [6] was over 100 µM. The TGI [7] was over 100 µM, the TGI [8] was over 100 µM and the TGI [9] was over 100 µM. It also gave a TGI [10] of over 100 µM, a TGI [11] of over 100 µM and a TGI [12] of over 100 µM. It also gave a TGI [13] of over 100 µM, a TGI [14] of over 100 µM and a TGI [15] of over 100 µM. For the same compound, the TGI [16] was over 100 µM, the TGI [17] was over 100 µM and the TGI [18] was over 100 µM. It also gave a TGI [19] of over 100 µM, a TGI [20] of over 100 µM and a TGI [21] of over 100 µM. For the same compound, the TGI [22] was over 100 µM, the TGI [23] was over 100 µM and the TGI [24] was over 100 µM. For the same compound, the TGI [25] was over 100 µM, the TGI [26] was over 100 µM and the TGI [27] was over 100 µM. The TGI [28] was over 100 µM, the TGI [29] was over 100 µM and the TGI [30] was over 100 µM. It also gave a TGI [31] of over 100 µM, a TGI [32] of over 100 µM and a TGI [33] of over 100 µM. For the same compound, the TGI [34] was over 100 µM, the TGI [35] was over 100 µM and the TGI [36] was over 100 µM. The TGI [37] was over 100 µM, the TGI [38] was over 100 µM and the TGI [39] was over 100 µM. It also gave a TGI [40] of over 100 µM, a TGI [41] of over 100 µM and a TGI [42] of over 100 µM. It also gave a TGI [43] of over 100 µM, a TGI [44] of over 100 µM and a TGI [45] of over 100 µM. It also gave a TGI [46] of over 100 µM, a TGI [47] of over 100 µM and a TGI [48] of over 100 µM. For the same compound, the TGI [49] was over 100 µM, the TGI [50] was over 100 µM and the TGI [51] was over 100 µM.

Work on `Cc1cc(C)nc(NS(=O)(=O)c2ccc(NC(=O)c3cccc4c(Nc5ccc(S(=O)(=O)Nc6cc(C)on6)cc5)c5ccccc5nc34)cc2)n1` yielded a TGI [52] of 38.9 µM, a TGI [1] of over 100 µM and a TGI [53] of 62.4 µM. For the same compound, the TGI [5] was 86.4 µM, the TGI [54] was 40.9 µM and the TGI [6] was 29.4 µM. For the same compound, the TGI [7] was 42.6 µM, the TGI [9] was over 100 µM and the TGI [10] was 46.7 µM. The TGI [55] was 32.5 µM, the TGI [13] was 65.2 µM and the TGI [14] was 35.7 µM. For the same compound, the TGI [15] was 46.7 µM, the TGI [16] was 61.8 µM and the TGI [56] was 39.8 µM. For the same compound, the TGI [17] was 30.4 µM, the TGI [18] was 40.2 µM and the TGI [19] was 35.6 µM. The TGI [22] was 80.6 µM, the TGI [24] was 34 µM and the TGI [57] was 75.2 µM. It also gave a TGI [26] of 75.7 µM, a TGI [27] of 40 µM and a TGI [28] of 47.2 µM. It also gave a TGI [29] of 39.6 µM, a TGI [31] of 80.3 µM and a TGI [32] of 47.6 µM. It also gave a TGI [33] of 50.2 µM, a TGI [35] of 59.9 µM and a TGI [36] of over 100 µM. For the same compound, the TGI [37] was 68.4 µM, the TGI [38] was over 100 µM and the TGI [40] was 84 µM. For the same compound, the TGI [42] was 47.5 µM, the TGI [43] was 48.9 µM and the TGI [45] was over 100 µM. It also gave a TGI [46] of 75.6 µM, a TGI [48] of 35.5 µM and a TGI [49] of 68.5 µM. For the same compound, the TGI [50] was 44.7 µM, the TGI [51] was 50 µM and the TGI [58] was 45.4 µM.

Compound `CC(=O)OCCOCNC(=S)N/N=C/c1cc(Br)cs1` has a TGI [52] of over 100 µM, a TGI [1] of over 100 µM and a TGI [59] of over 100 µM. The TGI [2] was over 100 µM, the TGI [53] was over 100 µM and the TGI [3] was over 100 µM. For the same compound, the TGI [4] was over 100 µM, the TGI [5] was over 100 µM and the TGI [54] was over 100 µM. For the same compound, the TGI [6] was over 100 µM, the TGI [7] was over 100 µM and the TGI [9] was over 100 µM. It also gave a TGI [10] of over 100 µM, a TGI [11] of over 100 µM and a TGI [55] of over 100 µM. It also gave a TGI [13] of over 100 µM, a TGI [14] of over 100 µM and a TGI [15] of over 100 µM. The TGI [16] was over 100 µM, the TGI [56] was over 100 µM and the TGI [17] was over 100 µM. The TGI [18] was over 100 µM, the TGI [19] was over 100 µM and the TGI [20] was over 100 µM. The TGI [21] was over 100 µM, the TGI [22] was over 100 µM and the TGI [23] was over 100 µM. For the same compound, the TGI [24] was over 100 µM, the TGI [25] was over 100 µM and the TGI [57] was over 100 µM. It also gave a TGI [26] of over 100 µM, a TGI [27] of over 100 µM and a TGI [28] of over 100 µM. For the same compound, the TGI [29] was over 100 µM, the TGI [30] was over 100 µM and the TGI [31] was over 100 µM. It also gave a TGI [32] of over 100 µM, a TGI [33] of over 100 µM and a TGI [34] of over 100 µM. For the same compound, the TGI [35] was over 100 µM, the TGI [36] was over 100 µM and the TGI [37] was over 100 µM. The TGI [38] was over 100 µM, the TGI [39] was over 100 µM and the TGI [40] was over 100 µM. The TGI [41] was over 100 µM, the TGI [42] was over 100 µM and the TGI [43] was over 100 µM. For the same compound, the TGI [44] was over 100 µM, the TGI [45] was over 100 µM and the TGI [46] was over 100 µM. The TGI [47] was over 100 µM, the TGI [48] was over 100 µM and the TGI [49] was over 100 µM. It also gave a TGI [50] of over 100 µM, a TGI [51] of over 100 µM and a TGI [58] of over 100 µM.

From PubChem BioAssay (NCI)
